According to patent publication US20170096492A1, “DOSAGE AND ADMINISTRATION OF ANTI-IGF-1R, ANTI-ErbB3 BISPECIFIC ANTIBODIES, USES THEREOF AND METHODS OF TREATMENT [sequence]” (Merrimack Pharmaceuticals, Inc., priority 2014, published 2017):
“Also recorded” adds a separate entry of the source.

Legend:
mTOR = mTOR (Homo sapiens, UniProt P42345); settings: cited from earlier work
[1] = tested on: DU145 prostate cancer-derived xenograft tumors; experiment: DU145 xenograft PD, western blot; format: in vivo, mice; settings: docetaxel 20 mpk i.p. single dose, tumors harvested Day 4
Text: (§1) For the PD studies described in FIGS. 6A-B and FIGS. 9 A-B, nu/nu female mice were inoculated with 8×10^6 DU145 or 5×10^6 BxPC-3 cells, respectively, in 1:1 Matrigel® suspension. […] Tumor lysates were generated and subjected to western blot analysis.

CAKI-1 xenografts = experiment: CAKI-1 xenograft PD, western blot; format: in vivo, mice; settings: single agent; MM-141 30 mpk i.p. or everolimus 10 mpk orally, 2 doses; tumors harvested 24 hours after second dose
Experimental: For the PD study results shown in FIGS. 3A-B and FIGS. 5A-C, NOD/SCID female mice were inoculated with 12×10^6 CAKI-1 or 10×10^6 SK-ES-1 cells, respectively, in 1:1 Matrigel® suspension. […] Tumors were harvested 24 hours after the second dose of drug; lysates were generated and subjected to western blot analysis.

[2] = tested on: CFPAC-1 pancreatic cancer cells; experiment: pAKT (Ser473) ELISA after chemotherapy and ligand stimulation; format: cell-based, human; settings: then HRG 5 nM or IGF-1 50 nM 15 minutes
Experimental: (§2) CFPAC-1 pancreatic cancer cells were seeded at 65% confluence in 10% serum-containing medium on 96-well plates overnight. […] Following incubation, cells were treated with (FIG. 24A) HRG (5 nM) or (FIG. 24B) IGF-1 (50 nM) for 15 minutes, where indicated. After treatment, cells were harvested and protein lysates generated. Changes in pAKT (Ser473) levels across all treatments were evaluated by pAKT ELISA, respectively. FIGS. 24(A-B) are bar graphs showing pAKT levels relative to ligand alone stimulated signals, which were normalized to 1.
as §2, with “25A)” for “24A)”, “25B)” for “24B)”, “25(A-B)” for “24(A-B)”

[3] = tested on: CFPAC-1 human pancreatic cancer cells; experiment: HRG mRNA expression by real time PCR; format: cell-based; settings: 24 hours
Experimental: CFPAC-1 human pancreatic cancer cells were serum-starved by plating the cells in 2% serum-containing medium overnight, followed by treatment with vehicle, 500 nM gemcitabine, or 50 nM paclitaxel for 24 hours. Post-treatment, cell lysates were harvested, mRNA extracted, cDNA generated and changes in HRG mRNA expression evaluated by real time PCR. Bar graphs represent mean HRG mRNA expression relative to the geometric mean of three housekeeping genes (protein phosphatase 2 catalytic subunit alpha (PPP2CA), ribosomal protein L4 (RPL4), and glucuronidase beta (GUSB)), normalized to vehicle control.

[4] = tested on: BxPC-3 derived xenograft tumors; experiment: BxPC-3 xenograft PD, western blot; format: in vivo, mice; settings: gemcitabine 150 mpk i.p. Day 0, 6; tumors harvested Day 7
Text: as §1

[5] = tested on: HepG2 hepatocellular carcinoma cells; experiment: HepG2 western blot, sorafenib with or without MM-141; format: cell-based; settings: sorafenib 5 μM, 2 hours
Experimental: HepG2 cells were plated on 12 well dishes (3×10^5 cells per well) in 10% serum-containing media and incubated overnight. […] Following treatment, cells were harvested in lysis buffer containing protease and phosphatase inhibitors and analyzed by western blotting.

Compound: COc1ccc(-c2ccc3c(N4CCOC[C@@H]4C)nc(N4CCOC[C@@H]4C)nc3n2)cc1CO [AZD8055]
- selectivity against PI3K isoforms and ATM/DNA-PK (mTOR): ~1,000 fold

Compound: CC(=O)O[C@@]12CO[C@@H]1C[C@H](O)[C@@]1(C)C(=O)[C@H](O)C3=C(C)[C@@H](OC(=O)[C@H](O)[C@@H](NC(=O)OC(C)(C)C)c4ccccc4)C[C@@](O)([C@@H](OC(=O)c4ccccc4)[C@H]21)C3(C)C [docetaxel, Docetaxel]
- ErbB3 protein expression level [1]: up-regulated
- IGF-1R protein expression level [1]: up-regulated

Compound: CO[C@H]1C[C@@H]2CC[C@@H](C)[C@@](O)(O2)C(=O)C(=O)N2CCCC[C@H]2C(=O)O[C@H]([C@H](C)C[C@@H]2CC[C@@H](OCCO)[C@H](OC)C2)CC(=O)[C@H](C)/C=C(\C)[C@@H](O)[C@@H](OC)C(=O)[C@H](C)C[C@H](C)/C=C/C=C/C=C/1C [everolimus, Everolimus, reference compound]
- total ErbB2 (CAKI-1 xenografts): upregulation
- total IGF-1R (CAKI-1 xenografts): upregulation

Compound: Nc1ccn([C@@H]2O[C@H](CO)[C@@H](O)C2(F)F)c(=O)n1 [gemcitabine, Gemcitabine]
- sensitivity to ligands, pAKT (Ser473) ([2]; gemcitabine 1 μM 24 hours): increased sensitivity to HRG and IGF-1
- HRG mRNA increase relative to vehicle control ([3]; 500 nM gemcitabine): about 22 fold
- total ErbB3 [4]: up-regulation and activation
- total IGF-1R [4]: up-regulation and activation

Compound: CC(=O)O[C@H]1C(=O)[C@@]2(C)[C@H]([C@H](OC(=O)c3ccccc3)[C@]3(O)C[C@H](OC(=O)[C@H](O)[C@@H](NC(=O)c4ccccc4)c4ccccc4)C(C)=C1C3(C)C)[C@]1(OC(C)=O)CO[C@@H]1C[C@@H]2O [paclitaxel, Paclitaxel, reference compound]
- sensitivity to ligands, pAKT (Ser473) ([2]; paclitaxel 100 nM 24 hours): increased sensitivity to IGF-1
- HRG mRNA relative to vehicle control ([3]; 50 nM paclitaxel): at least doubles

Compound: CNC(=O)c1cc(Oc2ccc(NC(=O)Nc3ccc(Cl)c(C(F)(F)F)c3)cc2)ccn1 [sorafenib, Sorafenib]
- ErbB3 level [5]: up-regulated; also recorded: upregulation of ErbB3 activity
- pAKT level [5]: up-regulated
